Test system: MV-4-11 cells
Test: Gene expression microarray analysis (Affymetrix PrimeView) and GSEA
Assay type: cell-based, human
Set-up: RFU PODN (11730768_x_at) / Fold change /veh PODN (11730768_x_at) / RFU LINC00158 (11744669_a_at) / Fold change /veh LINC00158 (11744669_a_at) / RFU DUSP10 (11751237_a_at) / Fold change /veh DUSP10 (11751237_a_at) / RFU ID3 (11757404_x_at) / Fold change /veh ID3 (11757404_x_at) / RFU PLEKHG5 (11737974_s_at) / Fold change /veh PLEKHG5 (11737974_s_at) / RFU LRRC4B (11730491_at) / Fold change /veh LRRC4B (11730491_at) / RFU GIMAP4 (11747438_a_at) / Fold change /veh GIMAP4 (11747438_a_at) / RFU KRT8 (11758183_x_at) / Fold change /veh KRT8 (11758183_x_at) / RFU CNN1 (11734310_a_at) / Fold change /veh CNN1 (11734310_a_at) / RFU VPS37D (11726825_at) / Fold change /veh VPS37D (11726825_at) / RFU C10orf10 (11716522_x_at) / Fold change /veh C10orf10 (11716522_x_at) / RFU KIR2DL2 /// KIR2DL4 /// KIR2DL5A /// KIR2DL5B /// KIR2DS1 /// KIR2DS2 /// KIR2DS3 /// KIR2DS4 /// KIR3DL3 /// KIR3DL3 /// KIR3DS1 (11738374_at) / Fold change /veh KIR2DL2 /// KIR2DL4 /// KIR2DL5A /// KIR2DL5B /// KIR2DS1 /// KIR2DS2 /// KIR2DS3 /// KIR2DS4 /// KIR3DL3 /// KIR3DL3 /// KIR3DS1 (11738374_at) / RFU C1QL1 (11718748_at) / Fold change /veh C1QL1 (11718748_at) / RFU TMPRSS4 (11747572_a_at) / Fold change /veh TMPRSS4 (11747572_a_at) / RFU HAMP (11756126_x_at) / Fold change /veh HAMP (11756126_x_at) / RFU RNFT2 (11725882_a_at) / Fold change /veh RNFT2 (11725882_a_at) / RFU NR4A2 (11747474_a_at) / Fold change /veh NR4A2 (11747474_a_at) / RFU ABCC12 (11746883_a_at) / Fold change /veh ABCC12 (11746883_a_at) / RFU TMEM136 (11760407_x_at) / Fold change /veh TMEM136 (11760407_x_at) / RFU CLDN22 /// WWC2 (11732394_at) / Fold change /veh CLDN22 /// WWC2 (11732394_at) / RFU HLA-DPB1 (11760878_x_at) / Fold change /veh HLA-DPB1 (11760878_x_at) / RFU SPINT1 (11716480_a_at) / Fold change /veh SPINT1 (11716480_a_at) / RFU GAP43 (11754022_s_at) / Fold change /veh GAP43 (11754022_s_at) / RFU A4GNT (11735810_at) / Fold change /veh A4GNT (11735810_at) / RFU PRB3 (11715151_x_at) / Fold change /veh PRB3 (11715151_x_at) / RFU TUBB4B (11761932_at) / Fold change /veh TUBB4B (11761932_at) / RFU CAPN14 (11732068_a_at) / Fold change /veh CAPN14 (11732068_a_at) / RFU TMCC2 (11721928_a_at) / Fold change /veh TMCC2 (11721928_a_at) / RFU IRGQ (11745062_a_at) / Fold change /veh IRGQ (11745062_a_at) / RFU FAM174B (11720279_a_at) / Fold change /veh FAM174B (11720279_a_at) / RFU TMPRSS4 (11748680_a_at) / Fold change /veh TMPRSS4 (11748680_a_at) / RFU FAM212B (11763350_a_at) / Fold change /veh FAM212B (11763350_a_at) / RFU PLEKHG5 (11743358_a_at) / Fold change /veh PLEKHG5 (11743358_a_at) / RFU ZSCAN30 (11745921_a_at) / Fold change /veh ZSCAN30 (11745921_a_at) / RFU CMKLR1 (11741424_a_at) / Fold change /veh CMKLR1 (11741424_a_at) / RFU LOC101060620 /// MAPK8IP1 (11723275_at) / Fold change /veh LOC101060620 /// MAPK8IP1 (11723275_at) / RFU SPTSSB (11747773_x_at) / Fold change /veh SPTSSB (11747773_x_at) / RFU PRSS12 (11739890_at) / Fold change /veh PRSS12 (11739890_at) / RFU BIN1 (11741810_x_at) / Fold change /veh BIN1 (11741810_x_at) / RFU WNT11 (11732464_a_at) / Fold change /veh WNT11 (11732464_a_at) / RFU C10orf10 (11716521_a_at) / Fold change /veh C10orf10 (11716521_a_at) / RFU C5orf56 (11738089_at) / Fold change /veh C5orf56 (11738089_at) / RFU CYB561 (11721691_x_at) / Fold change /veh CYB561 (11721691_x_at) / RFU ANKRD19P (11752326_a_at) / Fold change /veh ANKRD19P (11752326_a_at) / RFU OR2T12 /// OR2T33 /// OR2T8 (11738714_s_at) / Fold change /veh OR2T12 /// OR2T33 /// OR2T8 (11738714_s_at) / RFU VCAN (11748164_a_at) / Fold change /veh VCAN (11748164_a_at) / RFU JSRP1 (11732532_at) / Fold change /veh JSRP1 (11732532_at) / RFU KRTAP10-11 (11738290_x_at) / Fold change /veh KRTAP10-11 (11738290_x_at) / RFU MYO3A (11730013_a_at) / Fold change /veh MYO3A (11730013_a_at) / RFU EBF3 (11725865_a_at) / Fold change /veh EBF3 (11725865_a_at) / RFU CAMK2N1 (11719241_x_at) / Fold change /veh CAMK2N1 (11719241_x_at) / RFU C5orf56 (11738088_a_at) / Fold change /veh C5orf56 (11738088_a_at) / RFU OLFML3 (11715873_a_at) / Fold change /veh OLFML3 (11715873_a_at) / RFU LOC100653217 /// NTM (11731650_a_at) / Fold change /veh LOC100653217 /// NTM (11731650_a_at) / RFU MAPK11 (11762145_a_at) / Fold change /veh MAPK11 (11762145_a_at) / RFU FIZ1 (11724087_x_at) / Fold change /veh FIZ1 (11724087_x_at) / RFU OASL (11726364_x_at) / Fold change /veh OASL (11726364_x_at) / RFU SOX15 (11748057_x_at) / Fold change /veh SOX15 (11748057_x_at) / RFU CD79A (11719716_a_at) / Fold change /veh CD79A (11719716_a_at) / RFU HIST1H1D (11736915_at) / Fold change /veh HIST1H1D (11736915_at) / RFU CASKIN2 (11723855_a_at) / Fold change /veh CASKIN2 (11723855_a_at) / RFU LOC730098 (11760151_x_at) / Fold change /veh LOC730098 (11760151_x_at) / RFU OR4N2 (11742367_at) / Fold change /veh OR4N2 (11742367_at) / RFU PRRT2 (11749266_a_at) / Fold change /veh PRRT2 (11749266_a_at) / RFU SNX32 (11753110_a_at) / Fold change /veh SNX32 (11753110_a_at) / RFU CDHR5 (11726645_a_at) / Fold change /veh CDHR5 (11726645_a_at) / RFU RCAN1 (11760418_a_at) / Fold change /veh RCAN1 (11760418_a_at) / RFU FAM167A (11723789_a_at) / Fold change /veh FAM167A (11723789_a_at) / RFU FAM26E (11764081_at) / Fold change /veh FAM26E (11764081_at) / RFU ISYNA1 (11749810_s_at) / Fold change /veh ISYNA1 (11749810_s_at) / RFU ACY1 (11761880_at) / Fold change /veh ACY1 (11761880_at) / RFU 11764098_at / Fold change /veh 11764098_at / RFU SAMD14 (11745864_x_at) / Fold change /veh SAMD14 (11745864_x_at) / RFU NPB (11741838_a_at) / Fold change /veh NPB (11741838_a_at) / RFU TMPRSS6 (11731388_a_at) / Fold change /veh TMPRSS6 (11731388_a_at) / RFU KRTAP10-2 (11738614_at) / Fold change /veh KRTAP10-2 (11738614_at) / RFU ARHGAP8 /// PRR5-ARHGAP8 (11727945_x_at) / Fold change /veh ARHGAP8 /// PRR5-ARHGAP8 (11727945_x_at) / RFU KRTAP5-7 /// NADSYN1 (11734609_at) / Fold change /veh KRTAP5-7 /// NADSYN1 (11734609_at) / RFU RASL12 (11751679_a_at) / Fold change /veh RASL12 (11751679_a_at) / RFU CDKN2B (11736163_a_at) / Fold change /veh CDKN2B (11736163_a_at) / RFU PRF1 (11729649_at) / Fold change /veh PRF1 (11729649_at) / RFU, ZNF638 /// ZNF638-IT1 / Fold change vs veh, ZNF638 /// ZNF638-IT1 / RFU, PANK3 / Fold change vs veh, PANK3 / RFU, SH3YL1 / Fold change vs veh, SH3YL1 / RFU, ZEB2 / Fold change vs veh, ZEB2 / RFU, NRIP1 / Fold change vs veh, NRIP1 / RFU, PTTG1IP / Fold change vs veh, PTTG1IP / RFU, CAPN2 / Fold change vs veh, CAPN2 / RFU, MED14 / Fold change vs veh, MED14 / RFU, SNORA58 / Fold change vs veh, SNORA58 / RFU, C1orf63 / Fold change vs veh, C1orf63 / RFU, LRRFIP1 / Fold change vs veh, LRRFIP1 / RFU, NDUFAF7 / Fold change vs veh, NDUFAF7 / RFU, SLC12A2 / Fold change vs veh, SLC12A2 / RFU, IBTK / Fold change vs veh, IBTK / RFU, ESF1 / Fold change vs veh, ESF1 / Fold change vs veh, TMEM50B / RFU, TAOK1 / Fold change vs veh, TAOK1 / RFU, ACBD3 / Fold change vs veh, ACBD3 / RFU, TMA16 / Fold change vs veh, TMA16 / RFU, RWDD3 / Fold change vs veh, RWDD3 / RFU, BCAT1 / Fold change vs veh, BCAT1 / RFU, EDEM3 / Fold change vs veh, EDEM3 / RFU, TMEM33 / Fold change vs veh, TMEM33 / RFU, WDR75 / Fold change vs veh, WDR75 / RFU, AHCTF1 / Fold change vs veh, AHCTF1 / RFU, TFRC / Fold change vs veh, TFRC / RFU, ZDHHC17 / Fold change vs veh, ZDHHC17 / RFU, NOM1 / Fold change vs veh, NOM1 / RFU, ARL8B / Fold change vs veh, ARL8B / RFU, ZBTB11 / Fold change vs veh, ZBTB11 / RFU, TAMM41 / Fold change vs veh, TAMM41 / RFU, KIAA1704 /// LOC100996395 / Fold change vs veh, KIAA1704 /// LOC100996395 / RFU, ING1 / Fold change vs veh, ING1 / RFU, TRMT61B / Fold change vs veh, TRMT61B / RFU, FUBP3 / Fold change vs veh, FUBP3 / RFU, TP53 / Fold change vs veh, TP53 / RFU, TNKS2 / Fold change vs veh, TNKS2 / RFU, ZFP14 / Fold change vs veh, ZFP14 / RFU, ACTR2 / Fold change vs veh, ACTR2 / RFU, PPP3R1 / Fold change vs veh, PPP3R1 / RFU, PIK3R1 / Fold change vs veh, PIK3R1 / RFU, HNRNPA1 / Fold change vs veh, HNRNPA1 / RFU, RNF170 / Fold change vs veh, RNF170 / RFU, ZNF28 / Fold change vs veh, ZNF28 / RFU, RNGTT / Fold change vs veh, RNGTT / RFU, OGT / Fold change vs veh, OGT / RFU, BRD1 / Fold change vs veh, BRD1 / RFU, MARS / Fold change vs veh, MARS / RFU, ZNF655 / Fold change vs veh, ZNF655 / RFU, FAHD1 / Fold change vs veh, FAHD1 / RFU, BDP1 / Fold change vs veh, BDP1 / RFU, LRRCC1 / Fold change vs veh, LRRCC1 / RFU, ARID1A / Fold change vs veh, ARID1A / RFU, ZNF146 / Fold change vs veh, ZNF146 / RFU, ZNF330 / Fold change vs veh, ZNF330 / RFU, GPN3 / Fold change vs veh, GPN3 / RFU, C9orf123 / Fold change vs veh, C9orf123 / RFU, N4BP2L2 / Fold change vs veh, N4BP2L2 / RFU, ARFIP1 / Fold change vs veh, ARFIP1 / RFU, FAM179B / Fold change vs veh, FAM179B / RFU, BCL10 / Fold change vs veh, BCL10 / RFU, UHRF1BP1L / Fold change vs veh, UHRF1BP1L / RFU, BET1 / Fold change vs veh, BET1 / RFU, CNOT2 / Fold change vs veh, CNOT2 / RFU, ZNF268 / Fold change vs veh, ZNF268 / Fold change vs veh, ZNF507 / RFU, DGCR2 / Fold change vs veh, DGCR2 / RFU, WDSUB1 / Fold change vs veh, WDSUB1 / Fold change vs veh, HSP90B1 /// MIR3652 / RFU, ADSS / Fold change vs veh, ADSS / RFU, GK / Fold change vs veh, GK / RFU, ZNF148 / Fold change vs veh, ZNF148 / RFU, TAF9 / Fold change vs veh, TAF9 / RFU, SLC1A5 / Fold change vs veh, SLC1A5 / RFU, SLMO2 / Fold change vs veh, SLMO2 / RFU, ABCC4 / Fold change vs veh, ABCC4 / RFU, LOC101060439 /// RAP1B / Fold change vs veh, LOC101060439 /// RAP1B / RFU, RFX7 / Fold change vs veh, RFX7 / RFU, GTPBP10 / Fold change vs veh, GTPBP10 / RFU, CNEP1R1 / Fold change vs veh, CNEP1R1 / RFU, BIVM-ERCC5 /// ERCC5 / Fold change vs veh, BIVM-ERCC5 /// ERCC5 / RFU, ILF3 / Fold change vs veh, ILF3 / RFU 11762660_at / Fold change /veh 11762660_at / RFU VCAN (11757783_s_at) / Fold change /veh VCAN (11757783_s_at) / RFU DDX43 (11728927_at) / Fold change /veh DDX43 (11728927_at) / RFU KRT8 (11758188_x_at) / Fold change /veh KRT8 (11758188_x_at) / RFU NKD1 (11759106_at) / Fold change /veh NKD1 (11759106_at) / RFU SRD5A1 (11742802_a_at) / Fold change /veh SRD5A1 (11742802_a_at) / RFU TPSAB1 /// TPSB2 (11721975_s_at) / Fold change /veh TPSAB1 /// TPSB2 (11721975_s_at) / RFU GSTM3 (11746129_a_at) / Fold change /veh GSTM3 (11746129_a_at) / RFU IL23R (11737362_x_at) / Fold change /veh IL23R (11737362_x_at) / RFU TMEM51 (11727254_a_at) / Fold change /veh TMEM51 (11727254_a_at) / RFU PIWIL2 (11732686_x_at) / Fold change /veh PIWIL2 (11732686_x_at) / RFU ORM1 (11744905_x_at) / Fold change /veh ORM1 (11744905_x_at) / RFU CCDC152 (11743942_at) / Fold change /veh CCDC152 (11743942_at) / RFU ECM1 (11717891_a_at) / Fold change /veh ECM1 (11717891_a_at) / RFU IL23R (11748794_a_at) / Fold change /veh IL23R (11748794_a_at) / RFU TNFAIP8L3 (11732012_x_at) / Fold change /veh TNFAIP8L3 (11732012_x_at) / RFU MBOAT4 (11741988_at) / Fold change /veh MBOAT4 (11741988_at) / RFU 11764193_at / Fold change /veh 11764193_at / RFU TMEM53 (11763286_at) / Fold change /veh TMEM53 (11763286_at) / RFU MAGEB2 (11727129_at) / Fold change /veh MAGEB2 (11727129_at) / RFU TMEM200A (11744735_a_at) / Fold change /veh TMEM200A (11744735_a_at) / RFU CCDC152 (11751479_a_at) / Fold change /veh CCDC152 (11751479_a_at) / RFU FAM211A (11726209_a_at) / Fold change /veh FAM211A (11726209_a_at) / RFU RGS16 (11746705_a_at) / Fold change /veh RGS16 (11746705_a_at) / RFU VCAN (11755009_s_at) / Fold change /veh VCAN (11755009_s_at) / RFU RHOB (11743442_s_at) / Fold change /veh RHOB (11743442_s_at) / RFU RGS16 (11720943_a_at) / Fold change /veh RGS16 (11720943_a_at) / RFU RGS16 (11720944_at) / Fold change /veh RGS16 (11720944_at) / RFU, VPS4B / Fold change vs veh, VPS4B / RFU, CREB1 / Fold change vs veh, CREB1 / RFU, DNAJC13 / Fold change vs veh, DNAJC13 / RFU, GNAQ / Fold change vs veh, GNAQ / RFU, CDK5R1 / Fold change vs veh, CDK5R1 / RFU, ZRANB3 / Fold change vs veh, ZRANB3 / RFU, CUL4A / Fold change vs veh, CUL4A / RFU, CCNY / Fold change vs veh, CCNY / RFU, UFL1 / Fold change vs veh, UFL1 / RFU, COG3 / Fold change vs veh, COG3 / RFU, DIAPH2 / Fold change vs veh, DIAPH2 / RFU, SKA2 / Fold change vs veh, SKA2 / RFU, AFF3 / Fold change vs veh, AFF3 / RFU, LMF1 / Fold change vs veh, LMF1 / RFU, IPO11 / Fold change vs veh, IPO11 / RFU, DFFB / Fold change vs veh, DFFB / RFU, FOXP1 / Fold change vs veh, FOXP1 / RFU, CARD8 / Fold change vs veh, CARD8 / RFU, STRN3 / Fold change vs veh, STRN3 / RFU, ADK / Fold change vs veh, ADK / RFU, RASSF2 / Fold change vs veh, RASSF2 / RFU, WIPF1 / Fold change vs veh, WIPF1 / RFU, LARP1B / Fold change vs veh, LARP1B / RFU, RASA1 / Fold change vs veh, RASA1 / RFU, RB1 / Fold change vs veh, RB1 / RFU, PPFIA1 / Fold change vs veh, PPFIA1 / RFU, MAT2A / Fold change vs veh, MAT2A / RFU, CCT5 / Fold change vs veh, CCT5 / RFU, WDR92 / Fold change vs veh, WDR92 / RFU, CUX1 / Fold change vs veh, CUX1 / RFU, TTC7A / Fold change vs veh, TTC7A / RFU, TMEM135 / Fold change vs veh, TMEM135 / RFU, DEPTOR / Fold change vs veh, DEPTOR / RFU, CPM / Fold change vs veh, CPM / RFU, DNAJB6 / Fold change vs veh, DNAJB6 / RFU, CACNA2D3 / Fold change vs veh, CACNA2D3 / RFU, DTX4 / Fold change vs veh, DTX4 / RFU, TFCP2 / Fold change vs veh, TFCP2 / RFU, GMCL1 /// GMCL1P1 / Fold change vs veh, GMCL1 /// GMCL1P1 / RFU, AEBP2 / Fold change vs veh, AEBP2 / RFU, SNHG1 /// SNORD22 /// SNORD25 /// SNORD26 /// SNORD27 /// SNORD28 /// SNORD29 /// SNORD31 / Fold change vs veh, SNHG1 /// SNORD22 /// SNORD25 /// SNORD26 /// SNORD27 /// SNORD28 /// SNORD29 /// SNORD31 / Fold change (Aza/veh), C12orf56 (ProbeSet 11735607_a_at) / Fold change (ACY-1035/veh), C12orf56 (ProbeSet 11735607_a_at) / Fold change (Aza/veh), FGFR1OP (ProbeSet 11751329_s_at) / Fold change (ACY-1035/veh), FGFR1OP (ProbeSet 11751329_s_at) / Fold change (Aza/veh), VPS36 (ProbeSet 11739960_a_at) / Fold change (ACY-1035/veh), VPS36 (ProbeSet 11739960_a_at) / RFU SYPL1 (11715823_x_at) / Fold change /veh SYPL1 (11715823_x_at) / RFU IGFBP7 (11715501_s_at) / Fold change /veh IGFBP7 (11715501_s_at) / RFU REEP3 (11722064_at) / Fold change /veh REEP3 (11722064_at) / RFU IGLL1 (11728026_x_at) / Fold change /veh IGLL1 (11728026_x_at): dose or concentration left out as unconfirmed
Settings: ProbeSet 11725141_a_at; LIST B

Nc1ccc(-c2cccs2)cc1NC(=O)c1ccc2c(c1)cc(C1CC1)n2CCN1CCOCC1 [ACY-1035]
Fold change vs veh, FUBP3: 0.87

Source: article PMC5218480 (PLoS ONE, 2017)
